“Also recorded” adds a separate entry of the source. Where two headings read alike, the source gives them in different places. Ends that are not written are not given here. Bounds are passed on as bounds.

The subject of one data set is Xf. The settings on record: 1 mg/mL; cited from earlier work.
The test system of data set [1] is Xylella fastidiosa cells. It counts as cell-based.
The test system of data set [2] is Xylella fastidiosa subsp. pauca isolate De Donno in Nicotiana tabacum (var. Xanthi). It counts as in vivo.
For the next data set, the system named is Xf strain 9a5c. The note with it: cited from earlier work.
The test system of data set [3] is Xanthomonas albilineans (Xa), strain CFBP2523. The class given is cell-based. Details: key: +++: Clear plaque formation; ++: turbid plaque formation; +: highly turbid plaque formation; -: no plaque formation.
The test system of data set [4] is Xylella fastidiosa subsp. pauca, strain De Donno. The class given is cell-based.
Data set [5] shares this test system. It counts as cell-based. The source holds these as a separate data set.
A further data set has as its system E. coli. The note with it: cited from earlier work.
In data set [6] the test system is Xylella fastidiosa cells. It counts as cell-based. The source holds these as a separate data set.
In data set [7] the test system is Xylella fastidiosa biofilm. The class given is cell-based. The note with it: 50 μM, 20 days, 28 °C.
Data set [8] relates to Xylella fastidiosa cells. The class given is cell-based. This is another data set of the same source.
For a further data set, the system named is S. aureus. The note with it: cited from earlier work.
A further data set deals with X. fastidiosa. The settings on record: cited from earlier work.
The subject of data set [9] is Nicotiana tabacum cv. Xanthi leaves. The settings on record: in vivo.

Turning to `CC(=O)N[C@@H](CS)C(=O)O` [NAC, N-acetyl-L-cysteine], the “activity against Xf” value in the data set on Xf was “biocidal”. For the same compound, the “morphological changes of Xf cells under TEM” value (from here on “morphological changes”) in the data set on Xylella fastidiosa cells [1] (50 μM, 1 h, room temperature, Xf 10^8 CFU/mL) was “pore and protrusion formation and condensed cytoplasmic outflow from the outer membrane”. In data set [2] (30 dpi, 100 μL of treatment at inoculation point), the “Xf disease symptoms in Xf-infected tobacco plants” value is on record as “did not develop any symptoms”. Moreover, the “Xf disease symptoms in Xf-infected tobacco leaf” value in data set [2] (45 dpi, positive control treatment) is “no symptoms”. In addition, the “effect on biofilm biomass of Xf strain 9a5c” value in the data set with Xf strain 9a5c is recorded as “reducing the biofilm biomass”.

As for “IKWKKLLRAAKRIL-NH2 [IL14, DASamP2, synthetic antimicrobial peptide, […]-NH2]”, in data set [3], the “growth inhibition of Xanthomonas albilineans (plaque formation)” value (shortened to “growth inhibition”) is “+++”. In addition, in data set [4], the “antimicrobial activity on Xf growth in antibiogram” value (“antimicrobial activity on Xf growth” below) was “particularly highly active”. Further, the “morphological changes” value with Xylella fastidiosa cells [1] is “cytoplasmic condensation, loss of interior appearance, and alteration of the outer membrane”. In addition, in data set [5], the “reductive activity against Xf cells (OD600, words)” value (“reductive activity against Xf cells” for short) is recorded as “greatest activity”. Also, the “MIC (μM) E. coli” value in the data set with E. coli was 3.1 µM. The “reduction in Xf cell viability (v-qPCR)” value in the data set on Xylella fastidiosa cells [6] is “twofold reduction in cell viability”. The “effect on Xf biofilm formation (comparison, words)” value (from here on “effect on Xf biofilm formation”) in [7] is “greater performance than KL29”. For the same compound, in the data set on Xylella fastidiosa cells [8], the “lytic activity by fluorescence microscopy (live green / dead red)” value (shortened to “lytic activity … (live green / dead red)”) is “moderate lytic activity”. Moreover, in the data set with S. aureus, the “MIC (μM) S. aureus” value was 6.2 µM.

As to “FFGKVLKLIRKIF-NH2 [FF13, DASamP1, synthetic antimicrobial peptide, …-NH2]”, in data set [3], the “growth inhibition” value is recorded as “+++”. For the same compound, the “antimicrobial activity on Xf growth” value in [4] is reported as “particularly highly active”. The “morphological changes” value in the data set with Xylella fastidiosa cells [1] is “cytoplasmic condensation, loss of interior appearance, and alteration of the outer membrane”. Moreover, the “reductive activity against Xf cells” value in data set [5] is “greatest activity”. Also, in the data set on E. coli, the “MIC (μM) E. coli” value is over 100 µM. In addition, the “reduction in Xf cell viability (v-qPCR)” value in the data set on Xylella fastidiosa cells [6] is reported as “twofold reduction in cell viability”. The “effect on Xf biofilm formation” value in [7] was “greater performance than KL29”. In addition, the “lytic activity … (live green / dead red)” value in the data set with Xylella fastidiosa cells [8] is listed as “moderate lytic activity”. Moreover, in the data set with S. aureus, the “MIC (μM) S. aureus” value is 3.1 µM.

“VQFRIRVRIVIRK-NH2 [VK13, 1036, synthetic antimicrobial peptide, […]-NH2]”: in [3], the “growth inhibition” value was “+++ and +”. Besides, the “MIC (μM) X. fastidiosa” value in the data set on X. fastidiosa was 12.5 µM.

Lycotoxin I [IL25]: the “growth inhibition” value in data set [3] is “+++ and -”. In addition, the “MIC (μM) E. coli” value in the data set on E. coli is 25 µM. In addition, in the data set with S. aureus, the “MIC (μM) S. aureus” value was 3.1 µM.

For “GLLGLLGSVVSHVVPAIVGHF-NH2 [GF21, Maculatin 1.3, antimicrobial peptide, source frog]”, in [3], the “growth inhibition” value was “+++ and -”. In the data set on E. coli, the “MIC (μM) E. coli” value is over 100 µM. In the data set on S. aureus, the “MIC (μM) S. aureus” value was 6.2 µM.

In the case of “RIVWVRIRRWFV-NH2 [RV12, RIJK2, synthetic antimicrobial peptide, …-NH2]”, in [3], the “growth inhibition” value was “+++ and +”. For the same compound, in the data set on X. fastidiosa, the “MIC (μM) X. fastidiosa” value was 12.5 µM.

With “GFKDLLKGAAKALVKTVLF-NH2 [GF19, Ascaphin-8]”, the “growth inhibition” value in data set [3] is “+++”. Further, the “antimicrobial activity on Xf growth” value in [4] is listed as “particularly highly active; also recorded: distinct inhibitory activity”. Also, in the data set with Xylella fastidiosa cells [1], the “morphological changes” value is “damaged and fragmented cell walls, with complete destruction of the outer and inner bacterial membranes”. Also, the “reductive activity against Xf cells” value in data set [5] is “greatest activity”. In addition, in [9], the “diameter of halo-shaped tissue dissolving in tobacco leaves” value came to 7 mm and the “hypersensitive reaction in tobacco leaves” value was “light hypersensitive reaction”. In the data set with E. coli, the “MIC (μM) E. coli” value was 12.5 µM. For the same compound, the “reduction in viability of Xf compared to untreated cells (v-qPCR)” value with Xylella fastidiosa cells [6] is reported as “more-than-fourfold reduction in viability”. The “effect on Xf biofilm formation” value in [7] is on record as “interfered with biofilm formation in the same manner as NAC; also recorded: greater performance than KL29”. Besides, the “lytic activity … (live green / dead red)” value in the data set on Xylella fastidiosa cells [8] is “highest lytic activities”. Also, the “MIC (μM) S. aureus” value in the data set on S. aureus was 3.1 µM.

With “FFHHIFRGIVHVGKTIHRLVTG [FG22, Piscidin 1, antimicrobial peptide, source fish]”, the “growth inhibition” value in [3] is “+++ and -”. The “MIC (μM) E. coli” value in the data set with E. coli was 12.5 µM. In the data set on S. aureus, the “MIC (μM) S. aureus” value is 3.1 µM.

These data come from publication PMC9687439 (Biology, 2022).
